Earlier results, collected in US9687454B2, “Sublingual and buccal film compositions” (Indivior UK Limited, priority 2009, dated 2017).

Settings: known value

Structure (SMILES): C=CCN1CC[C@]23c4c5ccc(O)c4O[C@H]2C(=O)CC[C@@]3(O)[C@H]1C5 [naloxone]
- pKa: about 7.94
